From US11214564B2, “Compounds with thymine skeleton for use in medicine” (TECHNISCHE UNIVERSITÄT DRESDEN, priority 2019, dated 2022)

target: HSP27 (Homo sapiens, UniProt P04792); experiment: Aggregation assay: HSP27 chaperone activity on heat-induced aggregation of citrate synthase; assay type: biochemical; details: compound 10 μM; 1.44 μM CS, 481 nM HSP27, 43° C., 500 nm
Experimental: To test how small molecules affect the chaperone activity of HSP27, misfolding and aggregation of citrate synthase (CS), a well-known in vitro client protein of HSP27, was measured. Citrate synthase misfolds and aggregates when exposed to heat shock at 43° C. This heat denaturation is prevented or delayed in the presence of HSP27 (CS+HSP27) (Jakob et al. (1993)). […] The samples were incubated at 43° C. and the aggregation behavior of CS was monitored in a spectrometer (PerkinElmer LS55) at a wavelength of 500 nm. Substances inhibiting HSP27's chaperone activity lead to continued denaturation of the client protein and its aggregation in solution. This inhibition correlates with the strength of the interaction between HSP27 and the test substance, which is related to its binding efficiency.
In the reference experiment BVDU (CS+HSP27+BVDU) was tested at a concentration of 750 μM as previously described (Heinrich et al. (2016)).
The compounds according to the invention were tested at a concentration of 10 μM.

HSP27, sequence (P04792 whole entry): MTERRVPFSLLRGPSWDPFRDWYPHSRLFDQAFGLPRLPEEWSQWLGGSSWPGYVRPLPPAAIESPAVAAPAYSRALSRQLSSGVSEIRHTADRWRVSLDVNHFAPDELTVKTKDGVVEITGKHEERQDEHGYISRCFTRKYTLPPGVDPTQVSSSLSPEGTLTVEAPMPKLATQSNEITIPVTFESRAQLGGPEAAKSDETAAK

SMILES	aggregation value related to the value from reference experiment (CS + HSP27 + BVDU), which was set at 1.0
COc1ccc(-c2cccc(CC(=O)Nc3ccc(-n4cc(C)c(=O)[nH]c4=O)cc3)c2)cc1Cl [Compound 1, 2-(3′-Chloro-4′-methoxy-[1,1′-biphenyl]-3-yl)-N-(4-(5-methyl-2,4-dioxo-3,4-dihydropyrimidin-1(2H)-yl)phenyl)acetamide]	1.76
Cc1cn(-c2ccc(NC(=O)Cc3cccc(-c4cccc(Cl)c4)c3)cc2)c(=O)[nH]c1=O [Compound 2, 2-(3′-chloro-[1,1′-biphenyl]-3-yl)-N-(4-(5-methyl-2,4-dioxo-3,4-dihydro-pyrimidin-1(2H)-yl)phenyl) acetamide]	1.55
Cc1cn(-c2ccc(NC(=O)Cc3cccc(-c4ccc(Cl)c(Cl)c4)c3)cc2)c(=O)[nH]c1=O [Compound 3, 2-(3′,4′-dichloro-[1,1′-biphenyl]-3-yl)-N-(4-(5-methyl-2,4-dioxo-3,4-dihydro-pyrimidin-1(2H)-yl)phenyl) acetamide]	1.44
Cc1ccc(-c2cccc(CC(=O)Nc3ccc(-n4cc(C)c(=O)[nH]c4=O)cc3)c2)cc1Cl [Compound 6, 2-(3′-chloro-4′-methyl-[1,1′-biphenyl]-3-yl)-N-(4-(5-methyl-2,4-dioxo-3,4-dihydropyrimidin-1(2H)-yl)phenyl) acetamide]	1.38
Cc1cn(-c2ccc(NC(=O)Cc3cccc(-c4ccc(Cl)cc4Cl)c3)cc2)c(=O)[nH]c1=O [Compound 7, 2-(2′,4′-dichloro-[1,1′-biphenyl]-3-yl)-N-(4-(5-methyl-2,4-dioxo-3,4-dihydro-pyrimidin-1(2H)-yl)phenyl) acetamide]	1.35
CC(C)Oc1ccc(-c2cccc(CC(=O)Nc3ccc(-n4ccc(=O)[nH]c4=O)cc3)c2)cc1Cl [Compound 8, 2-(3′-chloro-4′-isopropoxy-[1,1′-biphenyl]-3-yl)-N-(4-(2,4-dioxo-3,4-dihydro-pyrimidin-1(2H)-yl)phenyl) acetamide]	1.34
Cc1cn(-c2ccc(NC(=O)Cc3cccc(-c4cccc(C(F)(F)F)c4)c3)cc2)c(=O)[nH]c1=O [Compound 9, N-(4-(5-methyl-2,4-dioxo-3,4-dihydro-pyrimidin-1(2H)-yl)phenyl)-2-(3′-(trifluoromethyl)-[1,1′-biphenyl]-3-yl)acetamide]	1.3
Cc1ccc(-c2cccc(CC(=O)Nc3ccc(-n4ccc(=O)[nH]c4=O)cc3C)c2)cc1Cl [Compound 10, 2-(3′-chloro-4′-methyl-[1,1′-biphenyl]-3-yl)-N-(4-(2,4-dioxo-3,4-dihydro-pyrimidin-1(2H)-yl)-2-methyl-phenyl)acetamide]	1.3
Cc1cn(-c2ccc(NC(=O)Cc3cccc(-c4cccc(OC(F)(F)F)c4)c3)cc2)c(=O)[nH]c1=O [Compound 11, N-(4-(5-methyl-2,4-dioxo-3,4-dihydro-pyrimidin-1(2H)-yl)phenyl)-2-(3′-(trifluoro-methoxy)-[1,1′-biphenyl]-3-yl) acetamide]	1.28
COc1ccc(-c2cccc(CC(=O)Nc3ccc(-n4ccc(=O)[nH]c4=O)c(Cl)c3)c2)cc1Cl [Compound 13, 2-(3′-chloro-4′-methoxy-[1,1′-biphenyl]-3-yl)-N-(3-chloro-4-(2,4-dioxo-3,4-dihydro-pyrimidin-1(2H)-yl)phenyl) acetamide]	1.21
COc1ccc(-c2cccc(CC(=O)Nc3ccc(-n4ccc(=O)[nH]c4=O)cc3C)c2)cc1Cl [Compound 14, 2-(3′-chloro-4′-methoxy-[1,1′-biphenyl]-3-yl)-N-(4-(2,4-dioxo-3,4-dihydro-pyrimidin-1(2H)-yl)-2-methyl-phenyl)acetamide]	1.2
Cc1cn(-c2ccc(NC(=O)Cc3cccc(-c4ccc(Cl)cc4)c3)cc2)c(=O)[nH]c1=O [Compound 15, 2-(4′-chloro-[1,1′-biphenyl]-3-yl)-N-(4-(5-methyl-2,4-dioxo-3,4-dihydropyrimidin-1(2H)-yl)phenyl) acetamide]	1.11
O=C(Cc1cccc(-c2ccc(Cl)cc2)c1)Nc1ccc(-n2cc(F)c(=O)[nH]c2=O)cc1 [Compound 16, 2-(4′-chloro-[1,1′-biphenyl]-3-yl)-N-(4-(5-fluoro-2,4-dioxo-3,4-dihydro-pyrimidin-1(2H)-yl)phenyl) acetamide]	1.04
O=C(Cc1cccc(-c2cccc(OC(F)(F)F)c2)c1)Nc1ccc(-n2cc(Cl)c(=O)[nH]c2=O)cc1 [Compound 17, N-(4-(5-chloro-2,4-dioxo-3,4-dihydro-pyrimidin-1(2H)-yl)phenyl)-2-(3′-(trifluoro-methoxy)-[1,1′-biphenyl]-3-yl) acetamide]	1.01
Cc1cc(-n2ccc(=O)[nH]c2=O)ccc1NC(=O)Cc1cccc(-c2ccc(Cl)c(Cl)c2)c1 [Compound 18, 2-(3′,4′-dichloro-[1,1′-biphenyl]-3-yl)-N-(4-(2,4-dioxo-3,4-dihydro-pyrimidin-1(2H)-yl)-2-methyl-phenyl)acetamide]	1
O=C(Cc1cccc(-c2cccc(OC(F)(F)F)c2)c1)Nc1ccc(-n2ccc(=O)[nH]c2=O)c(Cl)c1 [Compound 19, N-(3-chloro-4-(2,4-dioxo-3,4-dihydro-pyrimidin-1(2H)-yl)phenyl)-2-(3′-(trifluoro-methoxy)-[1,1′-biphenyl]-3-yl) acetamide]	0.97
O=C(Cc1cccc(-c2ccc(Cl)cc2Cl)c1)Nc1ccc(-n2cc(F)c(=O)[nH]c2=O)cc1 [Compound 20, 2-(2′,4′-dichloro-[1,1′-biphenyl]-3-yl)-N-(4-(5-fluoro-2,4-dioxo-3,4-dihydro-pyrimidin-1(2H)-yl)phenyl) acetamide]	0.96
O=C(Cc1cccc(-c2ccc(Cl)c(Cl)c2)c1)Nc1ccc(-n2ccc(=O)[nH]c2=O)c(Cl)c1 [Compound 21, N-(3-chloro-4-(2,4-dioxo-3,4-dihydro-pyrimidin-1(2H)-yl)phenyl)-2-(3′,4′-dichloro-[1,1′-biphenyl]-3-yl)acetamide]	0.94
COc1cccc(-c2cccc(CC(=O)Nc3ccc(-n4cc(C)c(=O)[nH]c4=O)cc3)c2)c1 [Compound 22, 2-(3′-methoxy-[1,1′-biphenyl]-3-yl)-N-(4-(5-methyl-2,4-dioxo-3,4-dihydro-pyrimidin-1(2H)-yl)phenyl) acetamide]	0.91
Cc1cn(-c2ccc(NC(=O)Cc3cccc(-c4ccc(OC(C)C)c(Cl)c4)c3)cc2)c(=O)[nH]c1=O [Compound 23, 2-(3′-chloro-4′-isopropoxy-[1,1′-biphenyl]-3-yl)-N-(4-(5-methyl-2,4-dioxo-3,4-dihydropyrimidin-1(2H)-yl)phenyl) acetamide]	1.33
O=C(Cc1cccc(-c2ccc(Cl)cc2)c1)Nc1ccc(-n2ccc(=O)[nH]c2=O)cc1 [Compound 24, 2-(4′-chloro-[1,1′-biphenyl]-3-yl)-N-(4-(2,4-dioxo-3,4-dihydro-pyrimidin-1(2H)-yl)phenyl) acetamide]	0.88
COc1ccc(-c2cccc(CC(=O)Nc3ccc(-n4ccc(=O)[nH]c4=O)cc3F)c2)cc1Cl [Compound 25, 2-(3′-chloro-4′-methoxy-[1,1′-biphenyl]-3-yl)-N-(4-(2,4-dioxo-3,4-dihydro-pyrimidin-1(2H)-yl)-2-fluoro-phenyl)acetamide]	0.88
O=C(Cc1cccc(-c2cccc(Cl)c2)c1)Nc1ccc(-n2ccc(=O)[nH]c2=O)cc1 [Compound 26, 2-(3′-chloro-[1,1′-biphenyl]-3-yl)-N-(4-(2,4-dioxo-3,4-dihydro-pyrimidin-1(2H)-yl)phenyl) acetamide]	0.85
COc1ccc(-c2cccc(CC(=O)Nc3ccc(-n4ccc(=O)[nH]c4=O)cc3)c2)cc1Cl [Compound 27, 2-(3′-chloro-4′-methoxy-[1,1′-biphenyl]-3-yl)-N-(4-(2,4-dioxo-3,4-dihydro-pyrimidin-1(2H)-yl)phenyl) acetamide]	0.83
O=C(Cc1cccc(-c2cccc(OC(F)(F)F)c2)c1)Nc1ccc(-n2ccc(=O)[nH]c2=O)cc1F [Compound 28, N-(4-(2,4-dioxo-3,4-dihydro-pyrimidin-1(2H)-yl)-2-fluoro-phenyl)-2-(3′-(trifluoro-methoxy)-[1,1′-biphenyl]-3-yl) acetamide]	0.82
